From ChEMBL document CHEMBL1129165, “6-Deoxy-6-hydroxymethyl scyllo-inositol 1,2,4-trisphosphate: A potent agonist at the inositol 1,4,5-trisphosphate receptor” (Bioorg Med Chem Lett, 1996) come the findings set out here.

Each structure is given as a SMILES string.

For the test, the species on record is Oryctolagus cuniculus. In words: Compound was tested for its ability to release [Ca2+] from permeabilised rabbit platelets. The test is classed as functional, organism-based.

`O=P(O)(O)O[C@@H]1[C@@H](O)[C@@H](O)[C@@H](OP(=O)(O)O)C(O)[C@H]1OP(=O)(O)O` (single isomer, unassigned) [INS(1,4,5)P3] registered an EC50 of 400 nM. The same measure, in the same setting: the result for `O=P(O)(O)O[C@H]1C(O)[C@@H](OP(=O)(O)O)[C@H](OP(=O)(O)O)[C@@H](O)C1O` (single isomer, unassigned) [INS(1,4,5)P3] reads 1670 nM.

Where the note is “Oryctolagus cuniculus”, `O=P(O)(O)OC1[C@@H](O)C(CO)C(OP(=O)(O)O)[C@H](OP(=O)(O)O)[C@@H]1O` (stereo partly drawn) came in with an EC50 of 440 nM.
